# PubChem BioAssay AID1963854 (Molecular Pharmacology Branch, DTP, NCI, 2024)
# Tested on: 186277-243-T-J2-PDC complex spheroid viability
# Assay: Anticancer human tumor 186277-243-T-J2-PDC patient-derived colon adenocarcinoma cell line growth inhibition [POLQ]
# Conditions: for IC50: curve of first compound; for viability, T/C: stronger effect = lower value
# Outline: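 Three-cell-type spheroids modelling solid tumor plus stroma served as the readout system; POL inhibitors were tested individually and in combination, concentration ranges set by clinical Cmax where known.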
# [1] = second compound 0.0316 µM, first compound 0.0316 µM
# [2] = second compound 0.0316 µM, first compound 0.1 µM
# [3] = second compound 0.0316 µM, first compound 0.316 µM
# [4] = second compound 0.0316 µM, first compound 1 µM
# [5] = second compound 0.0316 µM, first compound 3.16 µM
# [6] = second compound 0.0316 µM, first compound 10 µM
# [7] = second compound 0.1 µM, first compound 0.0316 µM
# [8] = second compound 0.1 µM, first compound 0.1 µM
# [9] = second compound 0.1 µM, first compound 0.316 µM
# [10] = second compound 0.1 µM, first compound 1 µM
# [11] = second compound 0.1 µM, first compound 3.16 µM
# [12] = second compound 0.1 µM, first compound 10 µM
# [13] = second compound 0.316 µM, first compound 0.0316 µM
# [14] = second compound 0.316 µM, first compound 0.1 µM
# [15] = second compound 0.316 µM, first compound 0.316 µM
# [16] = second compound 0.316 µM, first compound 1 µM
# [17] = second compound 0.316 µM, first compound 3.16 µM
# [18] = second compound 0.316 µM, first compound 10 µM
# [19] = second compound 1 µM, first compound 0.0316 µM
# [20] = second compound 1 µM, first compound 0.1 µM
# [21] = second compound 1 µM, first compound 0.316 µM
# [22] = second compound 1 µM, first compound 1 µM
# [23] = second compound 1 µM, first compound 3.16 µM
# [24] = second compound 1 µM, first compound 10 µM
# [25] = second compound 3.16 µM, first compound 0.0316 µM
# [26] = second compound 3.16 µM, first compound 0.1 µM
# [27] = second compound 3.16 µM, first compound 0.316 µM
# [28] = second compound 3.16 µM, first compound 1 µM
# [29] = second compound 3.16 µM, first compound 3.16 µM
# [30] = second compound 3.16 µM, first compound 10 µM
# [31] = second compound 10 µM, first compound 0.0316 µM
# [32] = second compound 10 µM, first compound 0.1 µM
# [33] = second compound 10 µM, first compound 0.316 µM
# [34] = second compound 10 µM, first compound 1 µM
# [35] = second compound 10 µM, first compound 3.16 µM
# [36] = second compound 10 µM, first compound 10 µM
# 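Also: spheroids exposed to compounds for seven days.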
# 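For viability, T/C in this document: 100% = DMSO vehicle control viability.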
compound,measurement,setting,value
O=c1[nH]cc(F)c(=O)[nH]1 + Cc1cccc(N(C)C(=O)C2C(O)CCN2c2nc(C)cc(C(F)(F)F)c2C#N)c1,IC50,second compound 0.0316 µM,9.4 µM
same,IC50,second compound 0.1 µM,> 10 µM
same,IC50,second compound 0.316 µM,9.14 µM
same,IC50,second compound 1 µM,9.77 µM
same,IC50,second compound 3.16 µM,> 10 µM
same,IC50,second compound 10 µM,8.83 µM
same,"viability, T/C",[1],103%
same,"viability, T/C",[2],99.5%
same,"viability, T/C",[3],95.4%
same,"viability, T/C",[4],112%
same,"viability, T/C",[5],75.5%
same,"viability, T/C",[6],48.5%
same,"viability, T/C",[7],105%
same,"viability, T/C",[8],99.9%
same,"viability, T/C",[9],98.9%
same,"viability, T/C",[10],98.3%
same,"viability, T/C",[11],73.5%
same,"viability, T/C",[12],52.2%
same,"viability, T/C",[13],87.2%
same,"viability, T/C",[14],91.6%
same,"viability, T/C",[15],94.4%
same,"viability, T/C",[16],116%
same,"viability, T/C",[17],76.5%
same,"viability, T/C",[18],47.8%
same,"viability, T/C",[19],102%
same,"viability, T/C",[20],102%
same,"viability, T/C",[21],104%
same,"viability, T/C",[22],103%
same,"viability, T/C",[23],79.9%
same,"viability, T/C",[24],49.4%
same,"viability, T/C",[25],112%
same,"viability, T/C",[26],108%
same,"viability, T/C",[27],88.5%
same,"viability, T/C",[28],99.7%
same,"viability, T/C",[29],81.8%
same,"viability, T/C",[30],52.1%
same,"viability, T/C",[31],105%
same,"viability, T/C",[32],110%
same,"viability, T/C",[33],100%
same,"viability, T/C",[34],111%
same,"viability, T/C",[35],77.6%
same,"viability, T/C",[36],46.7%
CCCS(=O)(=O)Nc1ccc(F)c(C(=O)c2c[nH]c3ncc(-c4ccc(Cl)cc4)cc23)c1F + Nc1ccc(C#CCN(C(=O)Cc2ncc(C(F)(F)F)cc2C(F)(F)F)c2ccc(F)cc2)nn1,IC50,second compound 0.0316 µM,> 10 µM
same,IC50,second compound 0.1 µM,> 10 µM
same,IC50,second compound 0.316 µM,> 10 µM
same,IC50,second compound 1 µM,> 10 µM
same,IC50,second compound 3.16 µM,> 10 µM
same,IC50,second compound 10 µM,9.97 µM
same,"viability, T/C",[1],89.6%
same,"viability, T/C",[2],100%
same,"viability, T/C",[3],88.9%
same,"viability, T/C",[4],79.8%
same,"viability, T/C",[5],113%
same,"viability, T/C",[6],66.3%
same,"viability, T/C",[7],91.5%
same,"viability, T/C",[8],87.7%
same,"viability, T/C",[9],86.8%
same,"viability, T/C",[10],82.9%
same,"viability, T/C",[11],91.5%
same,"viability, T/C",[12],60.9%
same,"viability, T/C",[13],89.7%
same,"viability, T/C",[14],90.5%
same,"viability, T/C",[15],89%
same,"viability, T/C",[16],94.3%
same,"viability, T/C",[17],85.8%
same,"viability, T/C",[18],57.8%
same,"viability, T/C",[19],100%
same,"viability, T/C",[20],91.2%
same,"viability, T/C",[21],109%
same,"viability, T/C",[22],94.4%
same,"viability, T/C",[23],87.8%
same,"viability, T/C",[24],62.8%
same,"viability, T/C",[25],120%
same,"viability, T/C",[26],89.5%
same,"viability, T/C",[27],85%
same,"viability, T/C",[28],93.4%
same,"viability, T/C",[29],88%
same,"viability, T/C",[30],63.6%
same,"viability, T/C",[31],108%
same,"viability, T/C",[32],97.7%
same,"viability, T/C",[33],85.7%
same,"viability, T/C",[34],95.9%
same,"viability, T/C",[35],85.1%
same,"viability, T/C",[36],48.8%
